Patent US20240360082A1, “SUBSTITUTED PYRIDONE COMPOUNDS USEFUL TO TREAT ORTH[…]” (priority 2021, published 2024)

Target: influenza B virus minigenome (Hubei B) (UniProt P04665)
Type: cell-based
Details: read-out: RNP_Hubei B IC50

influenza B virus minigenome (Hubei B), sequence (P04665 whole entry): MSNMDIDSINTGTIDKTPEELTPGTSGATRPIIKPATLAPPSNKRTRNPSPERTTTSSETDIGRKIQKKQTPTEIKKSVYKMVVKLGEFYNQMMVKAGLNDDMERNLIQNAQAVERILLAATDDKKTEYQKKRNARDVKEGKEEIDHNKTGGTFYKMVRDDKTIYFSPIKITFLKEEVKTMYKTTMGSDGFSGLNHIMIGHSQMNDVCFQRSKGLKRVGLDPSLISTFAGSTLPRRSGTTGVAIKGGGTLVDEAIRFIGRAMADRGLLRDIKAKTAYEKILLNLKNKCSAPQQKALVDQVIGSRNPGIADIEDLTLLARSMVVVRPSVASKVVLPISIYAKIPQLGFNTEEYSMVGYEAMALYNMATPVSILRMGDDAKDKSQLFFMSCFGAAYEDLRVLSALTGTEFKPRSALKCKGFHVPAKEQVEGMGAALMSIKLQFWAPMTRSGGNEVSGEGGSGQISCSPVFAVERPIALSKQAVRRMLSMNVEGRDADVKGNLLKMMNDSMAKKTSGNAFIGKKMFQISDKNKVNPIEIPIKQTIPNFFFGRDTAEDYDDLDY

| SMILES | IC50 [µM] |
| --- | --- |
| COC[C@@]1(C2CC2)COC[C@@H](COc2ccc(-c3cc(C(N)=O)c(=O)[nH]c3C(F)(F)F)cc2)O1 [Example 439, 5-(4-(((2S,6S)-6-cyclopropyl-6-(methoxymethyl)-1,4-dioxan-2-yl)methoxy)phenyl)-2-oxo-6-(trifluoromethyl)-1,2-dihydropyridine-3-carboxamide] | 5 to 10 |
| COC[C@]1(C2CC2)COC[C@@H](COc2ccc(-c3cc(C(N)=O)c(=O)[nH]c3C(F)(F)F)cc2)O1 [Example 438, 5-(4-(((2S,6R)-6-cyclopropyl-6-(methoxymethyl)-1,4-dioxan-2-yl)methoxy)phenyl)-2-oxo-6-(trifluoromethyl)-1,2-dihydropyridine-3-carboxamide] | 5 to 10 |
| C[C@]1(COCCF)COC[C@@H](COc2ccc(-c3cc(C(N)=O)c(=O)[nH]c3C(F)(F)F)cc2)O1 [Example 436, 5-(4-(((2S,6R)-6-((2-fluoroethoxy)methyl)-6-methyl-1,4-dioxan-2-yl)methoxy)phenyl)-2-oxo-6-(trifluoromethyl)-1,2-dihydropyridine-3-carboxamide] | 5 to 10 |
| C[C@@]1(C2CC2)COC[C@@H](COc2ccc(-c3cc(C(N)=O)c(=O)[nH]c3C(F)(F)F)cc2)O1 [Example 437, 5-(4-(((2S,6R)-6-cyclopropyl-6-methyl-1,4-dioxan-2-yl)methoxy)phenyl)-2-oxo-6-(trifluoromethyl)-1,2-dihydropyridine-3-carboxamide] | 5 to 10 |
| NC(=O)c1cc(-c2ccc(OC[C@@H]3COC[C@]4(CCOC4)O3)cc2)c(C(F)(F)F)[nH]c1=O [Example 440, 5-(4-(((5R,7S)-2,6,9-trioxaspiro[4.5]decan-7-yl)methoxy)phenyl)-2-oxo-6-(trifluoromethyl)-1,2-dihydropyridine-3-carboxamide] | 5 to 10 |

Target: influenza A virus minigenome (PB2, PB1, PA, NP proteins) (UniProt P04665)
Type: cell-based
Details: read-out: RNP_ Hubei B IC50

influenza A virus minigenome (PB2, PB1, PA, NP proteins), sequence (P04665 whole entry): as above

| SMILES | IC50 [µM] |
| --- | --- |
| NC(=O)c1cc(-c2ccc(OCC3COC(CF)CO3)cc2)c(C(F)(F)F)[nH]c1=O (single isomer, unassigned) [Example 340, 5-(4-((5-(fluoromethyl)-1,4-dioxan-2-yl)methoxy)phenyl)-2-oxo-6-(trifluoromethyl)-1,2-dihydropyridine-3-carboxamide] | 5 to 10 |
| NC(=O)c1cc(-c2ccc(OCC3COCC(COCC4(F)CC4)O3)cc2)c(C(F)(F)F)[nH]c1=O (single isomer, unassigned) [Example 365, 5-(4-((6-(((1-fluorocyclopropyl)methoxy)methyl)-1,4-dioxan-2-yl)methoxy)phenyl)-2-oxo-6-(trifluoromethyl)-1,2-dihydropyridine-3-carboxamide] | 5 to 10 |
| NC(=O)c1cc(-c2ccc(OCC3COCC(=O)N3)cc2)c(C(F)(F)F)[nH]c1=O (centres unmarked) [Example 250, 2-oxo-5-(4-((5-oxomorpholin-3-yl)methoxy)phenyl)-6-(trifluoromethyl)-1,2-dihydropyridine-3-carboxamide] | 25 to 50 |
| N#CCC1(COc2ccc(-c3cc(C(N)=O)c(=O)[nH]c3C(F)(F)F)cc2)COC1 [Example 229, 5-(4-((3-(cyanomethyl)oxetan-3-yl)methoxy)phenyl)-2-oxo-6-(trifluoromethyl)-1,2-dihydropyridine-3-carboxamide] | 25 to 50 |
| COCCOC[C@@]1(C)COC[C@@H](COc2ccc(-c3cc(C(N)=O)c(=O)[nH]c3C(F)(F)F)cc2)O1 [Example 430, 5-(4-(((2S,6S)-6-((2-methoxyethoxy)methyl)-6-methyl-1,4-dioxan-2-yl)methoxy)phenyl)-2-oxo-6-(trifluoromethyl)-1,2-dihydropyridine-3-carboxamide] | 5 to 10 |

Same assay, conditions: read-out: RNP_Hubei B

| SMILES | IC50 [µM] |
| --- | --- |
| NC(=O)c1cc(-c2ccc(OCC3CNCCCO3)cc2)c(C(F)(F)F)[nH]c1=O (centres unmarked) [Example 195, 5-(4-((1,4-oxazepan-2-yl)methoxy)phenyl)-2-oxo-6-(trifluoromethyl)-1,2-dihydropyridine-3-carboxamide] | 25 to 50 |
| NC(=O)c1cc(-c2ccc(CN3CCOCC3)cc2)c(C(F)(F)F)[nH]c1=O [Example 1, 5-(4-(morpholinomethyl)phenyl)-2-oxo-6-(trifluoromethyl)-1,2-dihydropyridine-3-carboxamide] | 25 to 50 |
| CC1(C2COCC(COc3ccc(-c4cc(C(N)=O)c(=O)[nH]c4C(F)(F)F)cc3)O2)CC1 (single isomer, unassigned) [Example 357, 5-(4-((6-(1-methylcyclopropyl)-1,4-dioxan-2-yl)methoxy)phenyl)-2-oxo-6-(trifluoromethyl)-1,2-dihydropyridine-3-carboxamide] | 5 to 10 |
| NC(=O)c1cc(-c2ccc(OCC3CNCCO3)cc2)c(C(F)(F)F)[nH]c1=O (centres unmarked) [Example 189, 5-(4-(morpholin-2-ylmethoxy)phenyl)-2-oxo-6-(trifluoromethyl)-1,2-dihydropyridine-3-carboxamide] | 25 to 50 |
| CN1CCCC(COc2ccc(-c3cc(C(N)=O)c(=O)[nH]c3C(F)(F)F)cc2)C1 (centres unmarked) [Example 92, 5-(4-((1-methylpiperidin-3-yl)methoxy)phenyl)-2-oxo-6-(trifluoromethyl)-1,2-dihydropyridine-3-carboxamide] | 25 to 50 |
| NC(=O)c1cc(-c2ccc(OCc3cncs3)cc2)c(C(F)(F)F)[nH]c1=O [Example 134, 2-oxo-5-(4-(thiazol-5-ylmethoxy)phenyl)-6-(trifluoromethyl)-1,2-dihydropyridine-3-carboxamide] | 25 to 50 |
| CN1C(COc2ccc(-c3cc(C(N)=O)c(=O)[nH]c3C(F)(F)F)cc2)COCC1(C)C (centres unmarked) [Example 207, 2-oxo-6-(trifluoromethyl)-5-(4-((4,5,5-trimethylmorpholin-3-yl)methoxy)phenyl)-1,2-dihydropyridine-3-carboxamide] | 5 to 10 |
| COCCN1CCOC(COc2ccc(-c3cc(C(N)=O)c(=O)[nH]c3C(F)(F)F)cc2)C1 (centres unmarked) [Example 193, 5-(4-((4-(2-methoxyethyl)morpholin-2-yl)methoxy)phenyl)-2-oxo-6-(trifluoromethyl)-1,2-dihydropyridine-3-carboxamide] | 25 to 50 |
| NC(=O)c1cc(-c2ccc(OCc3ccccn3)cc2)c(C(F)(F)F)[nH]c1=O [Example 73, 2-oxo-5-(4-(pyridin-2-ylmethoxy)phenyl)-6-(trifluoromethyl)-1,2-dihydropyridine-3-carboxamide] | 25 to 50 |
| COCC(Oc1ccc(-c2cc(C(N)=O)c(=O)[nH]c2C(F)(F)F)cc1)c1cccnc1 (centres unmarked) [Example 186, 5-(4-(2-methoxy-1-(pyridin-3-yl)ethoxy)phenyl)-2-oxo-6-(trifluoromethyl)-1,2-dihydropyridine-3-carboxamide] | 25 to 50 |
